In US6737383B1, “Herbicidal oxadiazolidines” (priority 1999, dated 2004):

Legend:
[1] = test system: wheat; assay: Test B pre/postemergence wheat; assay type: in vivo, Triticum aestivum
How it was run: (§1)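 Herbicidal effect was estimated by eye on a ten-point control scale after plants spent twelve to sixteen days in a greenhouse following soil or foliar treatment. Foliar sprays targeted plants at one to four leaves; all doses were formulated in a non-phytotoxic solvent with surfactant.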

[2] = test system: wild oat; assay: Test B pre/postemergence wild oat; assay type: in vivo, Avena fatua
How it was run: as §1

[3] = test system: rice; assay: Test B flood test rice; assay type: in vivo, Oryza sativa; conditions: Rate 125 g/ha; Postemergence section (flood test species); scale 0 to 10, 0 no effect, 10 complete control
Experimental: At the same time, these crop and weed species were also treated with postemergence applications of test chemicals formulated in the same manner. Plants ranged in height from 2 to 18 cm (1- to 4-leaf stage) for postemergence treatments. Plant species in the flood test consisted of rice (Oryza sativa), smallflower flatsedge (Cyperus difformis), duck salad (Heteranthera limosa) and bamyardgrass (Echinochloa crus-galli) grown to the 2-leaf stage for testing. Treated plants and controls were maintained in a greenhouse for twelve to sixteen days, after which all species were compared to controls and visually evaluated. Plant response ratings, summarized in Table B, are based on a scale of 0 to 10 where 0 is no effect and 10 is complete control. A dash (−) response means no test result.

[4] = test system: rape; assay: Test B pre/postemergence rape; assay type: in vivo, Brassica napus
How it was run: as §1

[5] = test system: blackgrass; assay: Test B pre/postemergence blackgrass; assay type: in vivo, Alopecurus myosuroides
How it was run: as §1

[6] = test system: bedstraw; assay: Test B pre/postemergence bedstraw; assay type: in vivo, Galium aparine
How it was run: as §1

[7] = test system: velvetleaf; assay: Test B pre/postemergence velvetleaf; assay type: in vivo, Abutilon theophrasti
How it was run: as §1

[8] = test system: morningglory; assay: Test B pre/postemergence morningglory; assay type: in vivo, Ipomoea hederacea
How it was run: as §1

[9] = test system: duck salad; assay: Test B flood test duck salad; assay type: in vivo, Heteranthera limosa; conditions: Rate 125 g/ha; Postemergence section (flood test species); scale 0 to 10, 0 no effect, 10 complete control
How it was run: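 Flood test on plants grown to the 2-leaf stage; treated plants kept in greenhouse twelve to sixteen days, then visually rated against controls on a 0 (no effect) to 10 (complete control) scale.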

[10] = test system: purple nutsedge; assay: Test B pre/postemergence purple nutsedge; assay type: in vivo, Cyperus rotundus
How it was run: as §1

[11] = test system: corn; assay: Test B pre/postemergence corn; assay type: in vivo, Zea mays
How it was run: as §1

[12] = test system: pigweed; assay: Test B pre/postemergence pigweed; assay type: in vivo, Amaranthus retroflexus
How it was run: as §1

[13] = test system: sugar beet; assay: Test B pre/postemergence sugar beet; assay type: in vivo, Beta vulgaris
How it was run: as §1

[14] = test system: soybean; assay: Test B pre/postemergence soybean; assay type: in vivo, Glycine max
How it was run: as §1

[15] = test system: surinam grass; assay: Test B pre/postemergence surinam grass; assay type: in vivo, Brachiaria decumbens
How it was run: as §1

[16] = test system: crabgrass; assay: Test B pre/postemergence crabgrass; assay type: in vivo, Digitaria sanguinalis
How it was run: as §1

[17] = test system: cocklebur; assay: Test B pre/postemergence cocklebur; assay type: in vivo, Xanthium strumarium
How it was run: as §1

[18] = test system: giant foxtail; assay: Test B pre/postemergence giant foxtail; assay type: in vivo, Setaria faberii
How it was run: as §1

[19] = Postemergence, Rate 62 g/ha, scale 0 to 10, 0 is no effect, 10 is complete control
[20] = Postemergence, Rate 250 g/ha, scale 0 to 10, 0 no effect, 10 complete control
[21] = Preemergence, Rate 62 g/ha, scale 0 to 10, 0 is no effect, 10 is complete control
[22] = Preemergence, Rate 125 g/ha, scale 0 to 10 (0 no effect, 10 complete control)
[23] = Preemergence, Rate 250 g/ha, scale of 0 to 10 where 0 is no effect and 10 is complete control
[24] = Preemergence, Rate 500 g/ha, scale 0 (no effect) to 10 (complete control)
[25] = Rate 125 g/ha, Postemergence, scale 0 to 10, 0 no effect, 10 complete control
[26] = Rate 500 g/ha, Postemergence, scale 0 to 10, 0 no effect, 10 complete control

COc1ccc(N(C(=O)n2oc(=O)n(-c3ccccc3C)c2=O)C(C)C)cc1 [Compound 49]
Wheat plant response rating [1, 19]: 0 | Wheat plant response rating [1, 20]: 0 | Plant response rating, Wheat [1, 21]: 0 | Plant response rating, Wheat [1, 22]: 0 | Plant response rating, Wheat [1, 23]: 0 | Wheat plant response rating [1, 24]: 0 | Wheat plant response rating [1, 25]: 0 | Wheat plant response rating [1, 26]: 0 | Wild oats plant response rating [2, 19]: 0 | Wild oats plant response rating [2, 20]: 0 | Plant response rating, Wild oats [2, 22]: 0 | Plant response rating, Wild oats [2, 23]: 0 | Wild oats plant response rating [2, 24]: 0 | Wild oats plant response rating [2, 25]: 0 | Wild oats plant response rating [2, 26]: 0 | Rice plant response rating [3]: 0 | Rape plant response rating [4, 19]: 0 | Rape plant response rating [4, 20]: 0 | Plant response rating, Rape [4, 21]: 0 | Plant response rating, Rape [4, 22]: 0 | Plant response rating, Rape [4, 23]: 0 | Rape plant response rating [4, 24]: 0 | Rape plant response rating [4, 25]: 0 | Rape plant response rating [4, 26]: 0 | Blackgrass plant response rating [5, 19]: 0 | Blackgrass plant response rating [5, 20]: 0 | Plant response rating, Blackgrass [5, 21]: 0 | Plant response rating, Blackgrass [5, 22]: 0 | Plant response rating, Blackgrass [5, 23]: 0 | Blackgrass plant response rating [5, 24]: 0 | Blackgrass plant response rating [5, 25]: 0 | Blackgrass plant response rating [5, 26]: 0 | Bedstraw plant response rating [6, 19]: 0 | Bedstraw plant response rating [6, 20]: 5 | Plant response rating, Bedstraw [6, 21]: 0 | Plant response rating, Bedstraw [6, 22]: 0 | Plant response rating, Bedstraw [6, 23]: 0 | Bedstraw plant response rating [6, 24]: 0 | Bedstraw plant response rating [6, 25]: 0 | Velvetleaf plant response rating [7, 19]: 0 | Velvetleaf plant response rating [7, 20]: 0 | Plant response rating, Velvetleaf [7, 21]: 0 | Plant response rating, Velvetleaf [7, 22]: 0 | Plant response rating, Velvetleaf [7, 23]: 0 | Velvetleaf plant response rating [7, 24]: 0 | Velvetleaf plant response rating [7, 25]: 0 | Velvetleaf plant response rating [7, 26]: 0 | Morningglory plant response rating [8, 19]: 0 | Morningglory plant response rating [8, 20]: 0 | Plant response rating, Morningglory [8, 21]: 0 | Plant response rating, Morningglory [8, 22]: 0 | Plant response rating, Morningglory [8, 23]: 0 | Morningglory plant response rating [8, 24]: 0 | Morningglory plant response rating [8, 25]: 0 | Morningglory plant response rating [8, 26]: 3 | Ducksalad plant response rating [9]: 0 | Nutsedge plant response rating [10, 19]: 0 | Nutsedge plant response rating [10, 20]: 0 | Plant response rating, Nutsedge [10, 21]: 0 | Plant response rating, Nutsedge [10, 22]: 0 | Plant response rating, Nutsedge [10, 23]: 0 | Nutsedge plant response rating [10, 24]: 0 | Nutsedge plant response rating [10, 25]: 0 | Nutsedge plant response rating [10, 26]: 0 | Corn plant response rating [11, 19]: 0 | Corn plant response rating [11, 20]: 0 | Plant response rating, Corn [11, 21]: 0 | Plant response rating, Corn [11, 22]: 0 | Plant response rating, Corn [11, 23]: 0 | Corn plant response rating [11, 24]: 0 | Corn plant response rating [11, 25]: 0 | Corn plant response rating [11, 26]: 0 | Redroot pigweed plant response rating [12, 19]: 0 | Redroot pigweed plant response rating [12, 20]: 0 | Plant response rating, Redroot pigweed [12, 21]: 0 | Plant response rating, Redroot pigweed [12, 22]: 0 | Plant response rating, Redroot pigweed [12, 23]: 0 | Redroot pigweed plant response rating [12, 24]: 0 | Redroot pigweed plant response rating [12, 25]: 0 | Redroot pigweed plant response rating [12, 26]: 0 | Sugarbeets plant response rating [13, 19]: 0 | Sugarbeets plant response rating [13, 20]: 0 | Plant response rating, Sugarbeets [13, 21]: 0 | Plant response rating, Sugarbeets [13, 22]: 0 | Plant response rating, Sugarbeets [13, 23]: 0 | Sugarbeets plant response rating [13, 24]: 0 | Sugarbeets plant response rating [13, 25]: 0 | Sugarbeets plant response rating [13, 26]: 0 | Soybean plant response rating [14, 19]: 1 | Soybean plant response rating [14, 20]: 1 | Plant response rating, Soybean [14, 21]: 0 | Plant response rating, Soybean [14, 22]: 0 | Plant response rating, Soybean [14, 23]: 0 | Soybean plant response rating [14, 24]: 0 | Soybean plant response rating [14, 25]: 1 | Soybean plant response rating [14, 26]: 1 | B. signalgrass plant response rating [15, 19]: 0 | B. signalgrass plant response rating [15, 20]: 0 | Plant response rating, B. signalgrass [15, 21]: 0 | Plant response rating, B. signalgrass [15, 22]: 0 | Plant response rating, B. signalgrass [15, 23]: 0 | B. signalgrass plant response rating [15, 24]: 0 | B. signalgrass plant response rating [15, 25]: 0 | B. signalgrass plant response rating ([15]; Rate 500 g/ha, Postemergence, scale of 0 to 10 where 0 is no effect and 10 is complete control): 0 | Crabgrass plant response rating [16, 19]: 0 | Crabgrass plant response rating [16, 20]: 8 | Plant response rating, Crabgrass [16, 21]: 2 | Plant response rating, Crabgrass [16, 22]: 7 | Plant response rating, Crabgrass [16, 23]: 9 | Crabgrass plant response rating [16, 24]: 9 | Crabgrass plant response rating [16, 25]: 1 | Crabgrass plant response rating [16, 26]: 9 | Cocklebur plant response rating [17, 19]: 0 | Cocklebur plant response rating [17, 20]: 0 | Plant response rating, Cocklebur [17, 21]: 0 | Plant response rating, Cocklebur [17, 22]: 0 | Plant response rating, Cocklebur [17, 23]: 0 | Cocklebur plant response rating [17, 24]: 0 | Cocklebur plant response rating [17, 25]: 0 | Cocklebur plant response rating [17, 26]: 0 | Giant foxtail plant response rating [18, 19]: 1 | Giant foxtail plant response rating [18, 20]: 9 | Plant response rating, Giant foxtail [18, 21]: 8 | Plant response rating, Giant foxtail [18, 22]: 8 | Plant response rating, Giant foxtail [18, 23]: 10 | Giant foxtail plant response rating [18, 24]: 10 | Giant foxtail plant response rating [18, 25]: 4 | Giant foxtail plant response rating [18, 26]: 9
